Reference: patent US12145930B1, “4-thiazolidinone derivatives as EGFR inhibitors for anti-tumor activity” (KING FAISAL UNIVERSITY, priority 2024, dated 2024)
“Also recorded” adds a separate entry of the source.

What was measured:
EGFR = EGFR (Homo sapiens, UniProt P00533); assay: EGFR inhibition assay (Alpha Screen system); assay type: biochemical; conditions: Gefitinib as standard
[1] = tested on: MCF7 (breast) carcinoma cell line; assay: antiproliferative growth assay, MCF7; assay type: cell-based, human
[2] = tested on: PC3 (prostate) carcinoma cell line; assay: antiproliferative growth assay, PC3; assay type: cell-based, human; conditions: PC3 prostate carcinoma cells
From the text: It is noteworthy that most of these compounds belong to the thiazolidine library.

[3] = tested on: HCT-116 (colon) carcinoma cell line; assay: antiproliferative growth assay, HCT-116; assay type: cell-based, human; conditions: for IC50: HCT116 colon carcinoma cells; for potency against colon cancer relative to the standard reference (5-fluorouracil): HCT-116, compared with 5-fluorouracil
MCF7 cells [4] = assay: cell cycle analysis by flow cytometry; assay type: cell-based, human; conditions: 24 hours
From the text: Typical neoplastic cells evade apoptosis since accumulation of mutations block apoptosis pathways. It was confirmed that the induction of apoptosis upon effective cancer treatment. It is an important regulatory mechanism in cell growth, maturation and death and is associated with a variety of human diseases, including tumors. Chemotherapy agents may lead to an autophagic response, which is one possible method of inducing apoptosis. There is a unique association between autophagy and apoptosis. While chemotherapeutic drugs induce autophagy, cell cycle arrest and cell senescence, it is imperative the induction of apoptosis and permanent removal of neoplastic cells for effective cancer treatment. Studies on the effect of compound 10 on cell cycle development and induction of apoptosis in cancer MCF7 cells was carried out. […] The cells were analyzed by flow cytometry technique.

MCF7 cells [5] = assay: apoptosis assay, Annexin V/PI; assay type: cell-based, human; conditions: 24 h
From the text: It has been detected that the early and late apoptosis produced by the examined compound 10 certainly indicated its capability to induce significant levels of apoptosis with necrosis percent 3.14.

[6] = Homo sapiens, MCF7, MCF7 breast carcinoma cells

IC50 [1, 6] [µM] | IC50 ([2]; Homo sapiens) [µM] | IC50 ([3]; Homo sapiens, HCT-116) [µM] | Compound | also measured
– | – | – | 4-(5-(((1H-1,2,4-triazol-3-yl)amino) methylene)-3-benzoyl-4-oxothiazolidin-2-ylidene)amino)benzoic acid [Compound 11] | IC50 (EGFR): 0.0739 ± 0.0016 µM
– | – | – | 4-((3-benzoyl-5-(5-((4-chlorophenyl)diazenyl)-2-hydroxybenzylidene)-4-oxothiazolidin-2-ylidene)amino)benzoic acid [Compound 9c] | IC50 ([1]; MCF7 breast carcinoma cells): 38 µM; IC50 [2]: > 100 µM; IC50 [3]: 19.6 µM; potency against colon cancer relative to the standard reference (5-fluorouracil) [3]: higher potency against colon cancer relative to the standard reference; IC50 (EGFR): 0.168 ± 0.0036 µM
– | – | – | 4-((3-benzoyl-5-((dimethylamino)methylene)-4-oxothiazolidin-2-ylidene)amino) benzoic acid [Compound 10] | IC50 (EGFR): 0.0674 µM
> 100 | > 100 | > 100 | O=C(O)c1ccc(/N=C2\SCC(=O)N2C(=O)c2ccccc2)cc1 [Compound 4, 4-((3-benzoyl-4-oxothiazolidin-2-ylidene)amino)benzoic acid] | –
> 100 | > 100 | > 100 | O=C(O)c1ccc(/N=C2\S/C(=C/c3ccccc3)C(=O)N2C(=O)c2ccccc2)cc1 [Compound 6a, 4-((3-benzoyl-5-(benzylidene)-4-oxothiazolidin-2-ylidene)amino)benzoic acid] | –
> 100 | > 100 | > 100 | O=C(O)c1ccc(/N=C2\S/C(=C/c3ccc(O)cc3)C(=O)N2C(=O)c2ccccc2)cc1 [Compound 6b, 4-((3-benzoyl-5-(4-hydroxybenzylidene)-4-oxothiazolidin-2-ylidene)amino)benzoic acid] | –
> 100 | > 100 | > 100 | O=C(O)c1ccc(/N=C2\S/C(=C/c3ccc(O)cc3O)C(=O)N2C(=O)c2ccccc2)cc1 [Compound 6c, 4-((3-benzoyl-5-(2,4-dihydroxybenzylidene)-4-oxothiazolidin-2-ylidene)amino) benzoic acid] | –
– | > 100 | 12.4 | COc1ccc(/C=C2/S/C(=N\c3ccc(C(=O)O)cc3)N(C(=O)c3ccccc3)C2=O)cc1 [Compound 6d, 4((3-benzoyl-5-(4-methoxybenzylidene)-4-oxothiazolidin-2-ylidene)amino) benzoic acid] | IC50 ([1]; MCF7 breast carcinoma cells): 34.4 µM; potency against colon cancer relative to the standard reference (5-fluorouracil) [3]: higher potency against colon cancer relative to the standard reference; IC50 (EGFR): 0.134 ± 0.0029 µM
> 100 | > 100 | > 100 | COc1cc(/C=C2/S/C(=N\c3ccc(C(=O)O)cc3)N(C(=O)c3ccccc3)C2=O)cc(OC)c1 [Compound 6e, 4-((3-benzoyl-5-(3,5-dimethoxybenzylidene)-4-oxothiazolidin-2-ylidene)amino) benzoic acid] | –
> 100 | > 100 | > 100 | O=C(O)c1ccc(/N=C2\S/C(=C/c3ccc4ccccc4c3)C(=O)N2C(=O)c2ccccc2)cc1 [Compound 6g, 4-((3-benzoyl-5-(naphthalen-2-ylmethylene)-4-oxothiazolidin-2-ylidene)amino) benzoic acid] | –
> 100 | > 100 | > 100 | O=C(O)c1ccc(/N=C2\S/C(=C/c3c[nH]c4ccccc34)C(=O)N2C(=O)c2ccccc2)cc1 [Compound 6h, 4-((5-((1H-indol-3-yl)methylene)-3-benzoyl-4-oxothiazolidin-2-ylidene)amino) benzoic acid] | –
> 100 | > 100 | > 100 | CN(C)c1ccc(/C=C2/S/C(=N\c3ccc(C(=O)O)cc3)N(C(=O)c3ccccc3)C2=O)cc1 [Compound 6i, 4-((3-benzoyl-5-(4-(dimethylamino)benzylidene)-4-oxothiazolidin-2-ylidene)amino) benzoic acid] | –
> 100 | > 100 | > 100 | O=C(O)c1ccc(/N=C2\S/C(=C/c3cc(/N=N/c4ccccc4)ccc3O)C(=O)N2C(=O)c2ccccc2)cc1 [Compound 9a, 4-((3-benzoyl-5-(2-hydroxy-5-((E)-phenyldiazenyl)benzylidene)-4-oxothiazolidin-2-ylidene)amino) benzoic acid] | –
> 100 | > 100 | > 100 | COc1ccc(/N=N/c2ccc(O)c(/C=C3/S/C(=N\c4ccc(C(=O)O)cc4)N(C(=O)c4ccccc4)C3=O)c2)cc1 [Compound 9b, 4-((3-benzoyl-5-(2-hydroxy-5-((4-methoxyphenyl)diazenyl)benzylidene)-4-oxothiazolidin-2-ylidene)amino)benzoic acid] | –
17.4 | 67.4 | 12.2 | CN(C)/C=C1\S/C(=N\c2ccc(C(=O)O)cc2)N(C(=O)c2ccccc2)C1=O [Compound 10, 4-((3-benzoyl-5-((dimethylamino)methylene)-4-oxothiazolidin-2-ylidene)amino) benzoic acid] | potency against colon cancer relative to the standard reference (5-fluorouracil) [3]: higher potency against colon cancer relative to the standard reference; Comment (cell cycle result) (MCF7 cells [4]): cell cycle arrest at G1/S phase; also recorded: PreGlapoptosis&Cell; % G0-G1 (MCF7 cells [4]; at IC50 concentration 12.17 μM): 38.71%; % G2/M (MCF7 cells [4]; at IC50 concentration 12.17 μM): 28.85%; % Pre-G1 (MCF7 cells [4]; at IC50 concentration 12.17 μM): 26.15%; % S (MCF7 cells [4]; at IC50 concentration 12.17 μM): 32.44%; Apoptosis Early (MCF7 cells [5]): 6.41%; Apoptosis Late (MCF7 cells [5]): 16.6%; Necrosis (MCF7 cells [5]): 3.14%
11.7 | 98.5 | 7.17 | O=C(O)c1ccc(/N=C2\S/C(=C/Nc3nc[nH]n3)C(=O)N2C(=O)c2ccccc2)cc1 [Compound 11] | potency against colon cancer relative to the standard reference (5-fluorouracil) [3]: higher potency against colon cancer relative to the standard reference; Apoptosis Early (MCF7 cells [5]): 6.41%; Apoptosis Late (MCF7 cells [5]): 16.6%; Apoptosis Total (MCF7 cells [5]): 26.15%; Necrosis (MCF7 cells [5]): 3.14%
